# Assays:
# [1] = tested on: CPG-ds27 (DNA, hairpin) CGCGAATTCGCGTTTCGCGAATTCGCG; assay: G4-CPG affinity chromatography; conditions: 50 mM KCl; 10% DMSO, 10% ethanol; 600 μM ligand
# [2] = tested on: CPG-tel26 (DNA, G4) TTAGGGTTAGGGTTAGGGTTAGGGTT; assay: G4-CPG affinity chromatography; conditions: 50 mM KCl; 10% DMSO, 10% ethanol; 600 μM ligand
# [3] = tested on: CPG-c-myc (DNA, G4) TGGGGAGGGTGGGGAGGGTGGGGAAGGTGGGGA; assay: G4-CPG affinity chromatography; conditions: 50 mM KCl; 10% DMSO, 10% ethanol; 600 μM ligand
# [4] = tested on: c-myc (DNA, G4) TGGGGAGGGTGGGGAGGGTGGGGAAGGTGGGGA; assay: CD melting, 262 nm; conditions: 0.5 mM KCl; 0.5 mM phosphate, 5% DMSO, pH 7; 2 μM DNA, 20 μM ligand
# [5] = tested on: ds27 (DNA, hairpin) CGCGAATTCGCGTTTCGCGAATTCGCG; assay: CD melting, 251 nm; conditions: 5 mM KCl; 5 mM phosphate, 5% DMSO, pH 7; 2 μM DNA, 20 μM ligand
# [6] = tested on: tel26 (DNA, G4) TTAGGGTTAGGGTTAGGGTTAGGGTT; assay: CD melting, 290 nm; conditions: 5 mM KCl; 5 mM phosphate, 5% DMSO, pH 7; 2 μM DNA, 20 μM ligand
# [7] = tested on: tel26 (DNA, G4) TTAGGGTTAGGGTTAGGGTTAGGGTT; assay: fluorescence titration; conditions: 5 mM KCl
# [8] = tested on: ds27 (DNA, hairpin) CGCGAATTCGCGTTTCGCGAATTCGCG; assay: fluorescence titration; conditions: 5 mM KCl
# [9] = tested on: c-myc (DNA, G4) TGGGGAGGGTGGGGAGGGTGGGGAAGGTGGGGA; assay: fluorescence titration; conditions: 5 mM KCl
# [10] = 5 mM phosphate, 5% DMSO, pH 7, 20 °C, 2 μM ligand, independent equivalent-sites model
structure (smiles),measurement,setting,value
CC1=C2C(=O)[C@H]3[C@@H](CC=C4C[C@@H](O)CC[C@@]43C)[C@@H]2CC[C@]12O[C@@H]1C[C@H](C)CN[C@H]1[C@H]2C,binding,[1],yes
same,binding,[2],yes
same,binding,[3],yes
CC(C)=CCC1=C(O)c2c(cc3cc(C)cc(O)c3c2O)C(CC=C(C)C)(CC=C(C)C)C1=O,binding,[2],weak
same,binding,[3],weak
CN1CC[C@]23C(=O)C[C@H]4C(=CCO[C@H]5CC(=O)N(c6c(O)cccc62)[C@H]3[C@H]54)C1,ΔTm,[4],+5 °C
same,ΔTm,[5],−3 °C
same,binding,[2],yes
same,ΔTm,[6],0 °C
same,binding,[3],yes
CC(C)=CCc1c(C)cc2cc3c(c(O)c2c1O)C(=O)C=C(O)C3(CC=C(C)C)CC=C(CO)CO (stereo not shown),binding,[2],weak
same,binding,[3],weak
COC(=O)[C@@H]1[C@H]2C[C@H]3c4[nH]c5ccccc5c4CCN3C[C@@H]2CC[C@@H]1O,binding,[3],weak
COc1ccc2c(c1O)-c1c3c(cc4c1[C@H](C2)N(C)CC4)OCO3,ΔTm,[4],+9 °C
same,Kb,[7]; [10],1.0 (±0.4) × 10^6 M^-1
same,Kb,[8]; [10],1.2 (±0.6) × 10^6 M^-1
same,Kb,[9]; [10],1.1 (±0.4) × 10^6 M^-1
CN1Cc2c(ccc3c2OCO3)[C@@H]2[C@H]1c1cc3c(cc1C[C@@H]2O)OCO3,ΔTm,[4],+13 °C
same,binding,"[7]; 5 mM phosphate, 5% DMSO, pH 7, 20 °C, 2 μM ligand, quenching, not fitted",yes
same,ΔTm,[5],−1 °C
same,ΔTm,[6],+4 °C
same,binding,"[8]; 5 mM phosphate, 5% DMSO, pH 7, 20 °C, 2 μM ligand, DNA up to 10 μM",no
same,binding,"[9]; 5 mM phosphate, 5% DMSO, pH 7, 20 °C, 2 μM ligand, enhancement then quenching, not fitted",yes
CC[C@H]1CN2CCc3cc(OC)c(OC)cc3[C@@H]2C[C@@H]1C[C@H]1NCCc2cc(OC)c(OC)cc21,binding,[1],yes
same,binding,[2],yes
same,binding,[3],yes
CC[C@H]1C[C@@H]2C[C@H]3c4[nH]c5ccc(OC)cc5c4CCN(C2)[C@@H]13,Kb,[7],4.1 (±0.8) × 10^5 M^-1
same,ΔTm,[5],0 °C
same,ΔTm,[6],+2 °C
same,Kb,[8],3.7 (±0.7) × 10^5 M^-1
same,Kb,[9],3.9 (±0.7) × 10^5 M^-1
COc1cc2cc3c(c(O)c2c2c1C=CC(C)(C)O2)C(=O)CC(C)(O)C3 (stereo not shown),binding,[2],weak
same,binding,[3],weak
CC(C)(O)CC[C@@H](O)[C@](C)(O)[C@H]1CC[C@@]2(O)C3=CC(=O)[C@@H]4C[C@@H](O)[C@@H](O)C[C@]4(C)[C@H]3CC[C@]12C,binding,[2],weak

# From PMC8537501 (2021)
